# In PubChem BioAssay AID1963424 (Molecular Pharmacology Branch, DTP, NCI, 2024):
# Several values for one entry are separate records, joined by “and”; a condition that tells them apart may be missing. Equal entries are not always repeated.
# Test system: 327498-153-R-J2-PDC complex spheroid growth, % test/control
# Test: Anticancer human tumor 327498-153-R-J2-PDC patient-derived uterine carcinosarcoma cell line growth inhibition [Asc]
# Settings: for viability, T/C: stronger effect = lower value
# Procedure, shortened: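 Tumor cells were grown as complex spheroids with human endothelial cells (HUVEC) and human mesenchymal stem cells as stroma. Agents were tested alone and in combination, in half-log steps down from the clinical Cmax, or from 10 microM where Cmax was unknown.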
# [1] = curve of first compound, second compound 0.1 µM
# [2] = curve of first compound, second compound 0.316 µM
# [3] = curve of first compound, second compound 1 µM
# [4] = second compound 0.1 µM, first compound 0.0316 µM
# [5] = second compound 0.1 µM, first compound 0.1 µM
# [6] = second compound 0.1 µM, first compound 0.316 µM
# [7] = second compound 0.1 µM, first compound 1 µM
# [8] = second compound 0.316 µM, first compound 0.0316 µM
# [9] = second compound 0.316 µM, first compound 0.1 µM
# [10] = second compound 0.316 µM, first compound 0.316 µM
# [11] = second compound 0.316 µM, first compound 1 µM
# [12] = second compound 1 µM, first compound 0.0316 µM
# [13] = second compound 1 µM, first compound 0.1 µM
# [14] = second compound 1 µM, first compound 0.316 µM
# [15] = second compound 1 µM, first compound 1 µM
# 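Also: spheroids exposed to compound for 7 days after 3 days of growth.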
# 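For viability, T/C in this document: 100% = DMSO vehicle control wells.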
smiles,measurement,setting,value
O=C(c1ccc(F)c(F)c1Nc1ccc(I)cc1F)N1CC(O)([C@@H]2CCCCN2)C1,"viability, T/C",compound 0.00316 µM,96.9% and 101% and 95.2%
same,"viability, T/C",compound 0.01 µM,96.2% and 95.5% and 92.5%
same,"viability, T/C",compound 0.0316 µM,88.3% and 78.5% and 90.8%
same,"viability, T/C",compound 0.1 µM,81% and 66.6% and 80.8%
same,"viability, T/C",compound 0.316 µM,60.5% and 59.8% and 60.2%
same,"viability, T/C",compound 1 µM,27.1% and 21.9% and 27.9%
same,IC50,curve of compound,456 nM and 339 nM and 455 nM
C#Cc1c(F)ccc2cc(O)cc(-c3ncc4c(N5CC6CCC(C5)N6)nc(OCC56CCCN5CC(F)C6)nc4c3F)c12 (stereo not drawn) + Cc1c(S(C)(=O)=O)c(-c2cc(F)cc(N3CCN(c4ccc(NS(=O)(=O)c5ccc(NC(CCN6CCC(C(=O)OCCCP(=O)(O)O)CC6)CSc6ccccc6)c(S(=O)(=O)C(F)(F)F)c5)cc4)CC3)c2)c(-c2ccc(Cl)cc2)n1C(C)C,IC50,[1],> 10000 nM
same,IC50,[2],5990 nM
same,IC50,[3],3180 nM
same,IC50,"curve of first compound, second compound 3.16 µM",5040 nM
same,IC50,"curve of first compound, second compound 10 µM",> 10000 nM
same,"viability, T/C",[4],97.2%
same,"viability, T/C",[5],107%
same,"viability, T/C",[6],82.5%
same,"viability, T/C",[7],75.1%
same,"viability, T/C","second compound 0.1 µM, first compound 3.16 µM",61.7%
same,"viability, T/C","second compound 0.1 µM, first compound 10 µM",50.1%
same,"viability, T/C",[8],102%
same,"viability, T/C",[9],88.9%
same,"viability, T/C",[10],88.3%
same,"viability, T/C",[11],65.8%
same,"viability, T/C","second compound 0.316 µM, first compound 3.16 µM",53.8%
same,"viability, T/C","second compound 0.316 µM, first compound 10 µM",47.3%
same,"viability, T/C",[12],90.6%
same,"viability, T/C",[13],101%
same,"viability, T/C",[14],81%
same,"viability, T/C",[15],71.1%
same,"viability, T/C","second compound 1 µM, first compound 3.16 µM",47.9%
same,"viability, T/C","second compound 1 µM, first compound 10 µM",43.8%
same,"viability, T/C","second compound 3.16 µM, first compound 0.0316 µM",96.6%
same,"viability, T/C","second compound 3.16 µM, first compound 0.1 µM",87.5%
same,"viability, T/C","second compound 3.16 µM, first compound 0.316 µM",70.8%
same,"viability, T/C","second compound 3.16 µM, first compound 1 µM",69.7%
same,"viability, T/C","second compound 3.16 µM, first compound 3.16 µM",51.4%
same,"viability, T/C","second compound 3.16 µM, first compound 10 µM",44.4%
same,"viability, T/C","second compound 10 µM, first compound 0.0316 µM",166%
same,"viability, T/C","second compound 10 µM, first compound 0.1 µM",165%
same,"viability, T/C","second compound 10 µM, first compound 0.316 µM",150%
same,"viability, T/C","second compound 10 µM, first compound 1 µM",145%
same,"viability, T/C","second compound 10 µM, first compound 3.16 µM",133%
same,"viability, T/C","second compound 10 µM, first compound 10 µM",86.6%
C=C(F)C(=O)N1CCN(c2nc(OCC3CCCN3C)nc3c2CCN(c2cccc4cccc(Cl)c24)C3)CC1CC#N (stereo not drawn),"viability, T/C",compound 0.0316 µM,68.8% and 82.4% and 85%
same,"viability, T/C",compound 0.1 µM,61.8% and 69.6% and 74.7%
same,"viability, T/C",compound 0.316 µM,56.1% and 67.6% and 66%
same,"viability, T/C",compound 1 µM,48.2% and 59.2% and 62.2%
same,"viability, T/C",compound 3.16 µM,19.4% and 14.3% and 24.8%
same,"viability, T/C",compound 10 µM,0.22% and 0.23% and 0.25%
same,IC50,curve of compound,654 nM and 1240 nM and 1270 nM
COc1c(OCCCN2CCOCC2)ccc2c3n(c(=NC(=O)c4cnc(N)nc4)nc12)CCN3 + CNC(C)C(=O)NC1CN(S(=O)(=O)c2cccc(S(=O)(=O)N3CCC4CCC(C(=O)NC(c5ccccc5)c5ccccc5)N4C(=O)C(NC(=O)C(C)NC)C3)c2)CCC2CCC(C(=O)NC(c3ccccc3)c3ccccc3)N2C1=O,IC50,"curve of first compound, second compound 0.01 µM",144 nM
same,IC50,"curve of first compound, second compound 0.0316 µM",144 nM
same,IC50,[1],135 nM
same,IC50,[2],137 nM
same,IC50,[3],146 nM
same,"viability, T/C","second compound 0.01 µM, first compound 0.00316 µM",93.4%
same,"viability, T/C","second compound 0.01 µM, first compound 0.01 µM",92.7%
same,"viability, T/C","second compound 0.01 µM, first compound 0.0316 µM",92.3%
same,"viability, T/C","second compound 0.01 µM, first compound 0.1 µM",57.5%
same,"viability, T/C","second compound 0.01 µM, first compound 0.316 µM",27.6%
same,"viability, T/C","second compound 0.01 µM, first compound 1 µM",4.73%
same,"viability, T/C","second compound 0.0316 µM, first compound 0.00316 µM",96.7%
same,"viability, T/C","second compound 0.0316 µM, first compound 0.01 µM",94.9%
same,"viability, T/C","second compound 0.0316 µM, first compound 0.0316 µM",79.1%
same,"viability, T/C","second compound 0.0316 µM, first compound 0.1 µM",62.1%
same,"viability, T/C","second compound 0.0316 µM, first compound 0.316 µM",27.8%
same,"viability, T/C","second compound 0.0316 µM, first compound 1 µM",3.85%
same,"viability, T/C","second compound 0.1 µM, first compound 0.00316 µM",106%
same,"viability, T/C","second compound 0.1 µM, first compound 0.01 µM",89.5%
same,"viability, T/C",[4],85.7%
same,"viability, T/C",[5],59%
same,"viability, T/C",[6],25.7%
same,"viability, T/C",[7],3.38%
same,"viability, T/C","second compound 0.316 µM, first compound 0.00316 µM",111%
same,"viability, T/C","second compound 0.316 µM, first compound 0.01 µM",110%
same,"viability, T/C",[8],86.1%
same,"viability, T/C",[9],59%
same,"viability, T/C",[10],26.9%
same,"viability, T/C",[11],2.23%
same,"viability, T/C","second compound 1 µM, first compound 0.00316 µM",111%
same,"viability, T/C","second compound 1 µM, first compound 0.01 µM",95.2%
same,"viability, T/C",[12],85.1%
same,"viability, T/C",[13],65%
same,"viability, T/C",[14],24.8%
same,"viability, T/C",[15],2.95%
NC1CCC(NC2CC2c2ccccc2)CC1 (stereo not drawn),"viability, T/C",compound 0.000316 µM,101% and 116% and 107%
same,"viability, T/C",compound 0.001 µM,97.7% and 101% and 104%
same,"viability, T/C",compound 0.00316 µM,104% and 101% and 98.6%
same,"viability, T/C",compound 0.01 µM,96.9% and 103% and 106%
same,"viability, T/C",compound 0.0316 µM,96.4% and 105% and 96.6%
same,"viability, T/C",compound 0.1 µM,89.5% and 98.1% and 92.1%
same,IC50,curve of compound,> 100 nM
CCN1CCN(Cc2ccc(Nc3ncc(F)c(-c4cc(F)c5nc(C)n(C(C)C)c5c4)n3)nc2)CC1,"viability, T/C",compound 0.00316 µM,95% and 98.3% and 99.9%
same,"viability, T/C",compound 0.01 µM,82.9% and 85.2% and 108%
same,"viability, T/C",compound 0.0316 µM,78% and 88.9% and 94.2%
same,"viability, T/C",compound 0.1 µM,73.7% and 77.4% and 81.4%
same,"viability, T/C",compound 0.316 µM,70.5% and 69.2% and 73.2%
same,"viability, T/C",compound 1 µM,63.1% and 63.3% and 75.3%
same,IC50,curve of compound,> 1000 nM
CNC(C)C(=O)NC1CN(S(=O)(=O)c2cccc(S(=O)(=O)N3CCC4CCC(C(=O)NC(c5ccccc5)c5ccccc5)N4C(=O)C(NC(=O)C(C)NC)C3)c2)CCC2CCC(C(=O)NC(c3ccccc3)c3ccccc3)N2C1=O (stereo not drawn) + CCN1C(C(=O)NC23CCC(C(=O)O)(CC2)CC3)C(c2cccc(Cl)c2F)C2(C(=O)Nc3cc(Cl)ccc32)C12CCCCC2,IC50,"curve of first compound, second compound 0.03 µM",> 1000 nM
same,IC50,"curve of first compound, second compound 0.0949 µM",> 1000 nM
same,IC50,"curve of first compound, second compound 0.3 µM",< 3.16 nM
same,IC50,"curve of first compound, second compound 0.949 µM",< 3.16 nM
same,IC50,"curve of first compound, second compound 3 µM",< 3.16 nM
same,"viability, T/C","second compound 0.03 µM, first compound 0.00316 µM",92.8%
same,"viability, T/C","second compound 0.03 µM, first compound 0.01 µM",84.1%
same,"viability, T/C","second compound 0.03 µM, first compound 0.0316 µM",85.6%
same,"viability, T/C","second compound 0.03 µM, first compound 0.1 µM",91.7%
same,"viability, T/C","second compound 0.03 µM, first compound 0.316 µM",89.2%
same,"viability, T/C","second compound 0.03 µM, first compound 1 µM",73.3%
same,"viability, T/C","second compound 0.0949 µM, first compound 0.00316 µM",86.3%
same,"viability, T/C","second compound 0.0949 µM, first compound 0.01 µM",70.2%
same,"viability, T/C","second compound 0.0949 µM, first compound 0.0316 µM",63.5%
same,"viability, T/C","second compound 0.0949 µM, first compound 0.1 µM",65.8%
same,"viability, T/C","second compound 0.0949 µM, first compound 0.316 µM",65.4%
same,"viability, T/C","second compound 0.0949 µM, first compound 1 µM",60.4%
same,"viability, T/C","second compound 0.3 µM, first compound 0.00316 µM",41.7%
same,"viability, T/C","second compound 0.3 µM, first compound 0.01 µM",36.5%
same,"viability, T/C","second compound 0.3 µM, first compound 0.0316 µM",35.1%
same,"viability, T/C","second compound 0.3 µM, first compound 0.1 µM",24.6%
same,"viability, T/C","second compound 0.3 µM, first compound 0.316 µM",35.6%
same,"viability, T/C","second compound 0.3 µM, first compound 1 µM",30.3%
same,"viability, T/C","second compound 0.949 µM, first compound 0.00316 µM",13.8%
same,"viability, T/C","second compound 0.949 µM, first compound 0.01 µM",9.3%
same,"viability, T/C","second compound 0.949 µM, first compound 0.0316 µM",5.92%
same,"viability, T/C","second compound 0.949 µM, first compound 0.1 µM",4.78%
same,"viability, T/C","second compound 0.949 µM, first compound 0.316 µM",6.7%
same,"viability, T/C","second compound 0.949 µM, first compound 1 µM",8.64%
same,"viability, T/C","second compound 3 µM, first compound 0.00316 µM",3.86%
same,"viability, T/C","second compound 3 µM, first compound 0.01 µM",2.08%
same,"viability, T/C","second compound 3 µM, first compound 0.0316 µM",2.54%
same,"viability, T/C","second compound 3 µM, first compound 0.1 µM",1.28%
same,"viability, T/C","second compound 3 µM, first compound 0.316 µM",2.31%
same,"viability, T/C","second compound 3 µM, first compound 1 µM",1.12%
